Experimental data published in US7125568B2, “Lipophilic drug compositions” (priority 2001, dated 2006).
Read-outs that look alike come from different tables or passages of the source. Values belong to the molecule of their own block, whether it stands above or below them.

What was measured:
fungal growth = experiment: Topical treatment of yellow fungal toes; format: in vivo, patients; conditions: 3% weight percent gel, 5 consecutive days then weekly for 4 weeks, after two weeks
Method: In the present study, patients suffering from yellow fungal toes were treated with a 3% weight percent BA3540 in a gel formulation (gel comprises propylene glycol and 0.8% Carbopol® Gel) for 5 consecutive days by topical application of the gel formulation on the surrounding nail cuticle area, followed by weekly treatment with the gel formulation for the next 4 weeks. The thickening of the nail caused by fungal growth disappeared after two weeks, and several months later a healthy nail began to appear behind the thick nail.

[1] = Solubility and heat stability of the bulk drug; format: physicochemical
Method: In a typical example, an equimolar ratio (approximately 2.5 moles) of lauric acid is activated with dicyclohexyl-carbodiimide (DCC) in 500 mL of dimethylformamide. After 90 minutes, the insoluble dicyclohexylurea formed is removed by vacuum filtration. The activated lauric acid solution is then added in approximately 1:1 ratio of the nucleophile 2-amino-5 nitro-thiazole in 600 mL of methylene chloride, 60 ml of pyridine and made up to 3.5 liters with dimethylformamide. The reaction is allowed to proceed for 40–48 hours with shaking, stirring or heating at 50° C. The product formed is obtained and purified by precipitation and recrystallization in methanol and or acetone. This synthesis scheme is depicted as 2-lauramide-5-nitrothioazole and is a nice needle shaped microcrystal. […] To promote complete dissolution, the drug has to be lightly heated.

HSV = experiment: Plaque reduction assay, HSV in human embryonic fibroblast cells; format: cell-based, Herpes simplex virus
Method: (§1) The drugs, NTZ and BA 3540, were made soluble at 10 mg/mL in dimethylsulfoxide and then diluted in media to 50 μg/mL, 5 μg/mL, 2.5 μg/mL, and 1.5 μg/mL. Human embryonic fibroblast cells were propagated in minimal essential media and supplemented with 10% fetal bovine serum. Cells were pre-treated with the two drugs at the 4 specified concentrations plus a zero control for 45 minutes. The plates were each infected with 300–400 viral particles of either HSV or HCMV for 1 hour. Drug free media was added to each plate and incubation continued for 3 days to propagate virus. At the end of three days, the supernatant from each of the plates was removed for plaque reduction assays.

Sarcocystis neurona = tested on: Sarcocystis neurona
Excerpt: The new drug was encapsulated as in Example 4 with 27% palmitic acid and 73% of Sterotex®.
Case 1: “Chris” is a 7 year old quarter horse gelding. […] Chris was given daily oral treatment of the new paste formulation containing lipid encapsulated 2-lauramide-5-nitrothiazole for a total of 28 dosings with 25 gm/syringe. (On day 22 to 28, the drug was not given and then resumed medication in the following week).
Case 2: “Brooke” is an 18-year-old thoroughbred mare. […] Again the horse was given daily oral treatments with the current dose of a typical 1000 lb horse at about 50 mg/Kg body weigh or 25 gm/day.
Case 3: “Foundation Man” is a 22-year-old Appaloosa gelding. […] Foundation Man was given daily oral treatments with the same amount of medication for 28 days.

HCMV = experiment: Plaque reduction assay, HCMV in human embryonic fibroblast cells; format: cell-based, Human Cytomalovirus
Method: as §1

coccidia = experiment: Treatment of coccidiosis in chickens (fecal float oocyst levels)
Method: An initial trial involving 120 broilers (4 week old chickens) for the treatment of coccidiosis was made. Three treatment groups were used: (1) control, (2) low dose of 10 mg BA 3540/kg treatment, and (3) high dose at 50 mg BA 3540/kg treatment. The broilers were separated into six pens, […]. Fecal collection was begun to check for the presence of coccidian. The treatments were then assigned and the trial started. The treatment was added to a mash diet and fed adlib for seven days. At the end of the treatment period, new fecal collections for each treatment group were analyzed for the presence of coccidia.
Two fecal samples were taken from each pen and a fecal float was done to check oocyst levels. Oocyst levels are considered to determine the adult coccidian present in an intestinal tract.
A confirmatory trial was conducted with 10 seven-week-old Arbor Acres broilers. The birds were divided into two groups: control and 50 mg/kg treatment groups. The two set of cages were off the floor to prevent any potential contamination. The trial was monitored for four days and fecal floats for oocyte population were used to determine efficacy. Two fecal samples were collected from each cage.

[2] = cited from earlier work
[3] = free form; cited from earlier work
[4] = Solubility and stability in water; format: physicochemical
Excerpt: (§2) Acetylbenzamide nitrothiazole, otherwise known as NTZ, is an antibiotic drug useful as a treatment for protozoan parasites. […] Acetylbenzamide nitrothiazole encapsulated by Sterotex® as described in Example 1 is hydrophobic and remains afloat on the water surface.

[5] = Degradation of acetylbenzamide nitrothiazole in 0.1 M NaCO3 (optical density); format: physicochemical; conditions: 0.1 M NaCO3, at 3 hours
Excerpt: as §2
The kinetic of degradation of acetylbenzamnide nitrothiazole in 0.1 M NaCO3 is similar to the aspirin curve of FIG. 1. […] 1, while the free drug has an optical density of 1.9. This example also illustrates the stabilizing effect of lipid encapsulation.

[6] = Degradation of aspirin in sodium carbonate, monitored by UV spectrophotometry; format: physicochemical; conditions: 0.1 M NaCO3 (10 pH), at 27 hours
Excerpt: In this example, aspirin is encapsulated in Sterotex® using the method described in Example 1. In aspirin, the deacetylated species is salicylic acid, which has a characteristic absorbency at 296 nm. The comparison of drug stability of Sterotex®/aspirin vs. aspirin was made in 0.1 M NaCO3 (10 pH) and the kinetics of degradation monitored by UV spectrophotometry. In FIG. 1, the appearance of salicylic acid is compared between aspirin encapsulated in Sterotex® and free aspirin. Aspirin slowly dissolves and is hydrolyzed to salicylic acid in a basic solution of 0.1 M NaCO3. At 27 hours, it is roughly 38% hydrolyzed. By contrast, aspirin encapsulated in Sterotex® is quite stable even at 27 hours and is only less than 2% degraded. This example illustrates the increase in drug stability provided by encapsulation in a lipid component.

Structure (SMILES): CCCCCCCCCCCC(=O)Nc1ncc([N+](=O)[O-])s1 [BA 3540, 2-lauramide-5-nitrothiazole]
thickening of the nail caused by fungal growth (fungal growth): disappeared
solubility in methanol ([1]; bulk drug): sparingly soluble
solubility in methylene chloride and dimethylforamide ([1]; bulk drug): more soluble
solubility in water ([1]; bulk drug): insoluble
stability on heating in organic solvents ([1]; methanol, acetone, methylene chloride, dimethylforamide at 60–80° C.): no appreciable detriment
therapeutic range (HSV): 5 to 10 µg/mL
plaques (HSV; 1.5 μg/mL, control 110 plaques): 90
EPM grade after treatment (Sarcocystis neurona; Case 1 Chris, from Grade 3, lipid encapsulated paste, oral daily, 28 dosings, 25 gm/syringe): 0/1
EPM grade after treatment (Sarcocystis neurona; Case 2 Brooke, started at Grade 2, day 29, about 50 mg/Kg or 25 gm/day oral): 2 grade
EPM grade after treatment (Sarcocystis neurona; Case 3 Foundation Man, from Grade 2/3, 28 day oral treatment): 0 Grade
recovery from EPM (Sarcocystis neurona; all three horses, owners' reports, day 84): fully recovered
side effects (Sarcocystis neurona; in vivo, po): no side effects
projected therapeutic range (HCMV): 1.5 to 2.5 µg/mL
plaques (HCMV; 1.5 μg/mL, controls 300 plaques): 3
plaques (HCMV; 2.5 μg/mL, controls 300 plaques): 1
plaques (HCMV; higher drug concentrations (5 and 50 μg/mL)): none
mortality (coccidia; broilers, 10 and 50 mg/kg in diet): no mortality
oocytes in fecal samples (coccidia; confirmatory trial, 50 mg/kg, four days, seven-week-old broilers): no visible oocytes
samples with detectable oocyst (coccidia; high dose group 50 mg/kg in mash diet, initial trial): 1 of 4
amount of oocyst (coccidia; low treatment group 10 mg/kg in mash diet, initial trial): about the same as the control group

solubility in water ([4]; water): sparingly soluble
optical density [5]: 1.9
Structure (SMILES): CC(=O)Oc1ccccc1C(=O)Nc1ncc([N+](=O)[O-])s1 [NTZ, Nitazoxanide]
expiry of bulk drug [2]: two
plaques (HCMV; all four drug concentrations (1.5, 2.5, 5, 50 μg/mL), control 310 plaques): no viral plaques
adverse effects in horses [3]: causes anorexia, depression and diathermia or loose stool
stability in water ([4]; standing in water, room temperature): converted to the deacetylated counterpart

hydrolyzed to salicylic acid (degraded) [6]: roughly 38%
Structure (SMILES): CC(=O)Oc1ccccc1C(=O)O [aspirin]
